These results are taken from PubChem BioAssay (NCI).

Test systems include A498 renal; CAKI-1 renal; DU-145 prostate; HCC-2998 colon; HOP-92 NSCLC; IGROV1 ovarian; OVCAR-3 ovarian; SK-MEL-28 melanoma; SW-620 colon; T-47D breast.
Assay in all cases: DTP human tumour cell line panel, 48 h

Values joined by “and” are separate entries in the source; they are usually repeats but may differ in a detail not shown here. Equal values may be shown once.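 In this assay, cells in 96-well plates receive the compound at five concentrations for 48 hours. Endpoints are linearly interpolated between the surrounding concentrations. Here, GI50 denotes the concentration required for 50% inhibition of growth. TGI: concentration producing complete growth inhibition.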

In the case of `O=C(CCCCCCSc1nc(-c2ccc(Cl)cc2)cc(-c2ccc(Cl)cc2)n1)NO`, the GI50 in the assay on A498 renal was 1.03 µM; with CAKI-1 renal it was 1.34 µM; with DU-145 prostate it was 1.46 µM; with HCC-2998 colon, 4.64 µM; in the assay on HOP-92 NSCLC, 1.61 µM; in the assay on IGROV1 ovarian, 1.7 µM. In addition, the GI50 with OVCAR-3 ovarian is 1.38 µM; with SK-MEL-28 melanoma it was 2.04 µM; in the assay on SW-620 colon, 1.71 µM; in the assay with T-47D breast it was 1.39 µM. Further, the TGI is 4.05 µM in the assay on A498 renal; 4.76 µM in the assay on CAKI-1 renal; 4.9 µM in the assay on DU-145 prostate; 17 µM with HCC-2998 colon; 8.39 µM with HOP-92 NSCLC; 12.8 µM in the assay on IGROV1 ovarian. The TGI was 4.91 µM in the assay with OVCAR-3 ovarian, greater than 50 µM in the assay with SK-MEL-28 melanoma, 24.2 µM in the assay on SW-620 colon and 9.13 µM with T-47D breast.

As to `CCc1nc(N)nc(N)c1-c1ccc(NCCc2ccccc2)c([N+](=O)[O-])c1`, the TGI with A498 renal is 43.4 µM; in the assay with CAKI-1 renal, greater than 71.3 µM; with DU-145 prostate, greater than 53.8 µM; with HCC-2998 colon, 11.3 µM; in the assay with HOP-92 NSCLC, 35.7 µM; with IGROV1 ovarian, 47.8 µM. The TGI with OVCAR-3 ovarian was 32.2 µM; in the assay with SK-MEL-28 melanoma, 28.2 µM; in the assay on SW-620 colon, greater than 79.4 µM; with T-47D breast, greater than 52.8 µM.

In the case of `Nc1nc(N)c2nc(CNc3ccc(C(=O)NC(CCCNC(=O)c4ccccc4C(=O)O)C(=O)O)cc3)cnc2n1` (stereo not given), the concentration for total growth inhibition (TGI) in the assay on A498 renal, in the assay on CAKI-1 renal, with DU-145 prostate, with HCC-2998 colon, in the assay on IGROV1 ovarian and in the assay with OVCAR-3 ovarian was greater than 100 µM throughout. Further, the TGI with SK-MEL-28 melanoma, in the assay with SW-620 colon and in the assay on T-47D breast was greater than 100 µM in each case. Moreover, the GI50 with CAKI-1 renal was 0.00224 µM; in the assay on HCC-2998 colon, 0.00132 µM; with HOP-92 NSCLC, < 0.01 µM and 0.0274 µM; with IGROV1 ovarian it was 0.0249 µM; in the assay on OVCAR-3 ovarian it was < 0.0157 µM and 0.0676 µM; in the assay with SW-620 colon, 0.000866 µM.

In the case of `O=C(OCc1ccc2c(Cl)cc(Cl)c(O)c2n1)c1cc2ccccc2[nH]1`, the GI50 was 1.63 µM in the assay with A498 renal; 0.435 µM in the assay with CAKI-1 renal; 0.916 µM in the assay with DU-145 prostate; 1.51 µM in the assay on HCC-2998 colon; 0.228 µM in the assay with HOP-92 NSCLC; 0.219 µM with IGROV1 ovarian. In addition, the concentration for 50% growth inhibition (GI50) in the assay on OVCAR-3 ovarian was 0.198 µM; with SK-MEL-28 melanoma, 0.532 µM; in the assay on SW-620 colon, 0.241 µM; with T-47D breast it was 1.49 µM. The TGI in the assay on A498 renal was determined as 3 µM; in the assay on CAKI-1 renal, 1.65 µM; in the assay with DU-145 prostate it was 2.19 µM; with HCC-2998 colon, 3.02 µM; in the assay with HOP-92 NSCLC, 0.722 µM; in the assay on IGROV1 ovarian, 0.5 µM. The TGI worked out at 0.398 µM in the assay on OVCAR-3 ovarian, 1.62 µM in the assay with SK-MEL-28 melanoma, 0.613 µM in the assay with SW-620 colon and 4.35 µM in the assay on T-47D breast.

`CCCCn1sc(=O)n(Cc2ccc(CNC(=O)OCc3ccc4c(Br)cc(Br)c(O)c4n3)cc2)c1=O`: the concentration for 50% growth inhibition (GI50) in the assay on A498 renal was 0.105 µM; with CAKI-1 renal, 0.609 µM; in the assay on DU-145 prostate it was 0.4 µM; in the assay with HCC-2998 colon, 4.25 µM; in the assay with HOP-92 NSCLC, 1.41 µM; in the assay with IGROV1 ovarian it was 0.531 µM. In addition, the GI50 was 0.292 µM in the assay on OVCAR-3 ovarian, 0.42 µM in the assay on SW-620 colon and greater than 100 µM with T-47D breast. Further, the TGI in the assay on A498 renal was 0.602 µM; in the assay on CAKI-1 renal it was greater than 100 µM; in the assay on HCC-2998 colon, greater than 69.8 µM; in the assay with HOP-92 NSCLC, greater than 100 µM; in the assay with IGROV1 ovarian it was greater than 100 µM; in the assay on OVCAR-3 ovarian, 0.8 µM. Moreover, the TGI with SK-MEL-28 melanoma, in the assay with SW-620 colon and in the assay with T-47D breast was greater than 100 µM each time.

Regarding `CC1=C[S+](c2ccccc2)c2cccc3cc4ccccc4c1c23` (stereo not given), the GI50 was 1.08 µM in the assay with A498 renal; 0.815 µM in the assay with CAKI-1 renal; 0.515 µM in the assay on DU-145 prostate; 0.406 µM in the assay on HCC-2998 colon; 0.506 µM in the assay on HOP-92 NSCLC; 0.467 µM in the assay on IGROV1 ovarian. For the same molecule, the concentration for 50% growth inhibition (GI50) is 0.323 µM in the assay on OVCAR-3 ovarian, 0.511 µM in the assay on SK-MEL-28 melanoma, 0.321 µM in the assay on SW-620 colon and 0.217 µM with T-47D breast. For the same molecule, the TGI in the assay on A498 renal worked out at 5.39 µM; in the assay on CAKI-1 renal it was 8.02 µM; in the assay with DU-145 prostate, 2.13 µM; in the assay with HCC-2998 colon it was 1.58 µM; in the assay with HOP-92 NSCLC it was 2.43 µM; in the assay with IGROV1 ovarian, 3.11 µM. The TGI in the assay on OVCAR-3 ovarian was determined as 1.44 µM; in the assay with SK-MEL-28 melanoma, 1.89 µM; in the assay on SW-620 colon it was 1.65 µM; in the assay on T-47D breast, 1.25 µM.

For the molecule `CCCCCC/C=C\CCCCCCCCCC1=CC(=O)C=C(OC)C1=O`, the TGI with A498 renal was 13.5 µM; with CAKI-1 renal, 9.65 µM; in the assay with DU-145 prostate, 38 µM; in the assay on HCC-2998 colon, 27 µM; in the assay with HOP-92 NSCLC, 8.05 µM; in the assay on IGROV1 ovarian it was 3.86 µM. The concentration for total growth inhibition (TGI) came to 17.6 µM in the assay with OVCAR-3 ovarian, 25.7 µM in the assay on SK-MEL-28 melanoma, 17.5 µM with SW-620 colon and 4.86 µM in the assay with T-47D breast.

With `C#Cc1cccc(Nc2nc3ccc([N+](=O)[O-])cc3nc2Nc2cccc(C#C)c2)c1`, the GI50 in the assay on A498 renal was 0.227 µM; in the assay with CAKI-1 renal, 0.297 µM; in the assay on DU-145 prostate it was 0.367 µM; in the assay on HCC-2998 colon it was 0.341 µM; in the assay on HOP-92 NSCLC it was 0.191 µM; with IGROV1 ovarian it was 0.354 µM. In addition, the GI50 in the assay on OVCAR-3 ovarian is 0.193 µM; in the assay on SK-MEL-28 melanoma, 0.354 µM; in the assay with SW-620 colon it was 0.291 µM; in the assay on T-47D breast, 0.259 µM. The TGI with A498 renal was 0.783 µM; in the assay with CAKI-1 renal, 0.994 µM; with DU-145 prostate, 1.47 µM; with HCC-2998 colon it was 1.27 µM; in the assay with HOP-92 NSCLC it was 0.704 µM; in the assay on IGROV1 ovarian, 1.3 µM. Besides, the TGI in the assay on OVCAR-3 ovarian worked out at 0.67 µM; with SK-MEL-28 melanoma, 1.17 µM; with SW-620 colon it was 1.09 µM; in the assay on T-47D breast, 0.889 µM.

In the case of `CCCSC1=NC2C(N(CC)C(=O)N2CC)N1/N=C/C=C/c1ccccc1[N+](=O)[O-]` (stereo not given), the GI50 in the assay on A498 renal is 1.59 µM; in the assay with CAKI-1 renal, 2.93 µM; in the assay with DU-145 prostate, 3.51 µM; with HCC-2998 colon it was 2.57 µM; in the assay on HOP-92 NSCLC it was 1.27 µM; in the assay on IGROV1 ovarian it was 4.06 µM. The GI50 in the assay on OVCAR-3 ovarian is 3.11 µM; with SK-MEL-28 melanoma it was 6.96 µM; in the assay with SW-620 colon it was 4.25 µM; in the assay with T-47D breast, 4.21 µM. Besides, the TGI in the assay on A498 renal was 6.35 µM; with CAKI-1 renal, greater than 100 µM; with DU-145 prostate, greater than 100 µM; in the assay on HCC-2998 colon it was 9.27 µM; in the assay with HOP-92 NSCLC, 8.47 µM; with IGROV1 ovarian it was greater than 100 µM. Besides, the total growth inhibition concentration (TGI) was 14.9 µM in the assay with OVCAR-3 ovarian, greater than 100 µM in the assay with SK-MEL-28 melanoma, greater than 100 µM in the assay with SW-620 colon and greater than 100 µM in the assay with T-47D breast.

`CCCCCCCC(=O)SCC/C=C/[C@@H]1CC(=O)NCc2nc(co2)C2=N[C@@](C)(CS2)C(=O)N[C@@H](C(C)C)C(=O)O1`: the GI50 with A498 renal is 0.0096 µM; with CAKI-1 renal it was 0.125 µM; with DU-145 prostate, 0.0123 µM; in the assay on HCC-2998 colon it was 0.0196 µM; in the assay on HOP-92 NSCLC it was 0.0147 µM; in the assay with IGROV1 ovarian, 0.0114 µM. The 50% growth inhibitory concentration (GI50) in the assay on OVCAR-3 ovarian is 0.0241 µM; in the assay on SK-MEL-28 melanoma it was 0.0138 µM; in the assay with SW-620 colon it was 0.0423 µM; with T-47D breast, 0.0312 µM. In addition, the TGI is 0.0396 µM in the assay on A498 renal; 0.394 µM in the assay with CAKI-1 renal; greater than 50 µM in the assay with DU-145 prostate; 0.216 µM in the assay on HCC-2998 colon; 0.111 µM in the assay on HOP-92 NSCLC; 0.163 µM in the assay with IGROV1 ovarian. Further, the TGI came to 0.156 µM in the assay on OVCAR-3 ovarian, 0.936 µM in the assay on SK-MEL-28 melanoma, 1.9 µM in the assay with SW-620 colon and 0.201 µM in the assay on T-47D breast.

For the molecule `COC1=Nc2ccccc2S(=O)(=O)C=C1`, the TGI with A498 renal was 33 µM; with DU-145 prostate it was 31.4 µM; with HCC-2998 colon it was 36.9 µM; in the assay on HOP-92 NSCLC it was 15.2 µM; in the assay with IGROV1 ovarian it was 28.1 µM; with OVCAR-3 ovarian, 6.79 µM. The results for the TGI in the assay with SK-MEL-28 melanoma, with SW-620 colon and with T-47D breast were 19.9 µM, 3.46 µM and 14.2 µM, respectively. Moreover, the GI50 with CAKI-1 renal was 0.256 µM; in the assay with HOP-92 NSCLC, 0.742 µM; with SW-620 colon, 0.875 µM.

As usually defined, the GI50 is the concentration giving 50% growth inhibition. As a reminder, the TGI is the concentration at which net growth stops.
